Measurements taken from patent publication US20180140578A1, “METHODS AND COMPOSITIONS FOR THE DIAGNOSIS AND SELECTIVE TREATMENT OF CANCER” (Board of Regents of the University of Texas System, priority 2016, published 2018).

What was measured:
[1] = system: RBM39 in DCAF15−/− H1155 cells; assay: RBM39 degradation in DCAF15−/− cells (western blotting); assay type: cell-based, human
Description: (§1) Proteins were resolved on SDS-PAGE and transferred to 0.5 μm nitrocellulose membranes. Membranes were blocked in 5% milk TBST for 30 min, and then anti-RBM39 antibodies (HPA001591, Sigma-Aldrich) were added in 5% milk (1:5000) and incubated on a shaker overnight at 4° C. After three 5 min washes with TBST, membranes were incubated with HRP-conjugated goat anti-rabbit secondary antibody (Bio-Rad) for 2 hr at room temperature. After three 5 min washes with TBST, membranes were developed with ECL (enhanced chemiluminescence) substrates.
Two independent guide RNAs targeting DDB1, DDA1, DCAF15 were cloned into PX459. 0.2 million H1155 RBM39-AcGFP cells were transfected with PX459 sgRNA constructs and selected with 2 μg/ml puromycin to enrich for transfected cells. […] Cells were then trypsinized and the expression of RBM39-AGFP was quantified with flow cytometry. H1155 cells transfected with DCAF15 guide RNA were sparsely plated on 10 cm^2 plates and clones were isolated. Genomic DNA sequence flanking the cut site were amplified and sequenced to identify DCAF15−/− clones.

[2] = biological target: T1, RBM39 (Homo sapiens, UniProt Q14498+Q66K64); assay: RBM39 degradation in cells (western blotting); assay type: cell-based; settings: HCT-116 cells; dose dependent, evident as early as two hours after treatment
T1 construct: triggers the degradation of RBM39 in parental HCT-116 cells; endogenous in cells; host or cells: HCT-116
Description: as §1

[3] = biological target: T2, DDB1:DCAF15-GST and RBM39Δ150 (Homo sapiens, UniProt Q14498+Q66K64); assay: Indisulam dependent co-fractionation of DCAF15-DDB1 and RBM39 (size exclusion chromatography); assay type: binding; settings: 10 μM indisulam
T2 construct: made in house; host or cells: Sf9 (baculovirus)
T2 sequence (Q66K64 whole entry, stated change not applied): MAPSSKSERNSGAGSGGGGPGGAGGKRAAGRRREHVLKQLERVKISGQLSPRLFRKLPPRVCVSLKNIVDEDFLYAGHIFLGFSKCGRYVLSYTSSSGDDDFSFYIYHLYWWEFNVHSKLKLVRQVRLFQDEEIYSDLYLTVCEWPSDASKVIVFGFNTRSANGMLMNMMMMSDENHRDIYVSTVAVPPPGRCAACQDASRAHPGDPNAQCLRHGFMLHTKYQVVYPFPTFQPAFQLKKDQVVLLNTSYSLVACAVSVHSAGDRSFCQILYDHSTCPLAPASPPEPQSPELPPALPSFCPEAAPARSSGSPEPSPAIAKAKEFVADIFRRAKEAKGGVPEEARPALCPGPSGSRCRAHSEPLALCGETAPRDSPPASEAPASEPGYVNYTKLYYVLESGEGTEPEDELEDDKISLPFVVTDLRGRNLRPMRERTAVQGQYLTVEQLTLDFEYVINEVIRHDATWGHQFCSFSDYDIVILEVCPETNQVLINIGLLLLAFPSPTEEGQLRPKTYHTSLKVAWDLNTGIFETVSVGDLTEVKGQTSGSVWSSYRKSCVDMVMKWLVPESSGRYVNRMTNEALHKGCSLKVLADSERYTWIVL
T2 sequence (Q14498 151-530 limits assumed, stated change not applied): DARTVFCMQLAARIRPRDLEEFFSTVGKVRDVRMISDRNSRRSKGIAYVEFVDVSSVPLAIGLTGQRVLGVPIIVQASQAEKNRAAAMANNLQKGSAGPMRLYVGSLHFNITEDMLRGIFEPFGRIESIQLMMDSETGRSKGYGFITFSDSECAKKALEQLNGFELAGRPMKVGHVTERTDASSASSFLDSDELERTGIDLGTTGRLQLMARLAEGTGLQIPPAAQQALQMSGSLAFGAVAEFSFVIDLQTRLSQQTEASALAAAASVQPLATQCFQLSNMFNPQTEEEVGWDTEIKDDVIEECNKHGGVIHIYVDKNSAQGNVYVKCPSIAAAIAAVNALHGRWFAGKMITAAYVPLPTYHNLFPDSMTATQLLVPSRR
T2 sequence (Q16531 whole entry partner): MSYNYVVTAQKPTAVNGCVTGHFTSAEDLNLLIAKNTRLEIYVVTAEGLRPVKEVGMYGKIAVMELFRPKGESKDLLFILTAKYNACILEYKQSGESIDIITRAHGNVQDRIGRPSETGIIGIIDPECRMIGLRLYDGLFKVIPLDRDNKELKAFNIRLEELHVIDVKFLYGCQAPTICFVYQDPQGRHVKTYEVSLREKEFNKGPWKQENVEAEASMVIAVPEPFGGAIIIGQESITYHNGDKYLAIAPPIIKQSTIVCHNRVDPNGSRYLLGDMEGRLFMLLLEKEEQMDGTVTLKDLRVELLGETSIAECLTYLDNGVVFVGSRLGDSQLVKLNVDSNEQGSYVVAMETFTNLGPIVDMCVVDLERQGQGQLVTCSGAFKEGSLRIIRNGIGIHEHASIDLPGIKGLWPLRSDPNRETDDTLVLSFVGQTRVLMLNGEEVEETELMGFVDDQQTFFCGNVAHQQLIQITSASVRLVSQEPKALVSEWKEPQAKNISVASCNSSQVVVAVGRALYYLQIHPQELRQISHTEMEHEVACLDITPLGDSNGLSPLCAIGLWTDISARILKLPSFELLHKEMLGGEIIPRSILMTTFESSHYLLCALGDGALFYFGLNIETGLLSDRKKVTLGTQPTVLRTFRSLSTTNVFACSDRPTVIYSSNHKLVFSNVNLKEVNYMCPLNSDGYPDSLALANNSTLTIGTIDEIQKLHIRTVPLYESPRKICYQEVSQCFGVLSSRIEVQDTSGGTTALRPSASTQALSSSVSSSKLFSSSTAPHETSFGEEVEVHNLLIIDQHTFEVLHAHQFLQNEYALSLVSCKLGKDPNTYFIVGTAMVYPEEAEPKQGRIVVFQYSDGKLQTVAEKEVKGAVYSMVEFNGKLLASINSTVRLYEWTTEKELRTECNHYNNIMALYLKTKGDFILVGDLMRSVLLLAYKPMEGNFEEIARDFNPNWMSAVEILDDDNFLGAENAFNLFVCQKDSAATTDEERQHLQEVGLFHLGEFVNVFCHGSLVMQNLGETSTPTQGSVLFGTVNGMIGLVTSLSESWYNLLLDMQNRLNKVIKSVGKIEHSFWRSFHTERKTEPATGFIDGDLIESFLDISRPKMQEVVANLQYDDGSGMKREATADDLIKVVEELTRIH
Description: (§2) RBM39 lacking the first 150 amino acids after the start codon (RBM39Δ150) was cloned into the pFastBac1 (Life Technologies) vector. Site-directed Mutagenesis of RBM39 was performed using Q5 site-directed mutagenesis kit (NEB). DCAF15-GST (C-terminal GST tag) and DDB1 were also cloned into pFastBac1. The production of baculovirus was carried out following vendor's instructions. Protein was expressed in SF9 cells by infection with each protein specific baculovirus, and cells were harvested 48 hr later and frozen in liquid nitrogen. For purification of RBM39Δ150, frozen cells were pulverized by cryomill and resuspended in lysis buffer (40 mM Tris, pH 7.5, 225 mM NaCl, 1× […] Protease inhibitor). The lysate was passed through a 22 gauge needle 2 times followed by ultracentrifugation at 25000 rpm for 30 min. Clarified lysate was incubated with Ni-NTA agarose (Qiagen) for 30 min with rotation at 4° C. Resin and bound protein were washed with wash buffer 1 (40 mM Tris, pH 7.5, 225 mM NaCl) followed by wash buffer 2 (40 mM Tris, pH 7.5, 20 mM imidazole, 225 mM NaCl). Proteins were eluted with elution buffer (40 mM Tris, pH 7.5, 300 mM imidazole, 225 mM NaCl) and concentrated to 0.5 ml. […]
The mixture was incubated for 1 hour with rotation at 4° C. […] 1 ml fractions were collected and analyzed by SDS-PAGE and coomassie blue staining.

[4] = system: HCT-116 cells expressing wild type or mutant RBM39; assay: Transient transfection of RBM39 cDNA, crystal violet staining; assay type: cell-based, human; settings: 2 μM indisulam
Description: RBM39 was PCR amplified from U2OS cDNA and cloned into pLVX IRES zsGreen1 (Clontech). Mutagenesis of RBM39 was performed using Q5 site-directed mutagenesis kit (NEB) and primers were designed using the NEBaseChanger web server (nebasechanger.neb.com/). For transient transfection, 0.1 million HCT-116 cells were seeded per well in a 12-well plate on day 1. On day 2, cells were transfected with 1 μg of plasmid (pLVX IRES zsGreen containing wild type or mutant RBM39). […] For crystal violet staining, cells on plates were stained with 0.05% crystal violet, 1% formaldehyde in 1×PBS for 20 min at room temperature, followed by several rinses with deionized water to remove free stain.

[5] = biological target: T3, DCAF15-3xFLAG and RBM39Δ150 (Homo sapiens, UniProt Q14498+Q66K64); assay: RBM39Δ150 pulldown assay; assay type: binding
T3 construct: Full-length cDNAs encoding CUL4A, CUL4B, DCAF15, and DDB1 were cloned into pLVX IRES Puro; made in house; host or cells: RBM39Δ150: Sf9 (baculovirus); DCAF15-3xFLAG: anti-FLAG beads from HCT-116 or 293T cells stably expressing it
T3 sequence (Q66K64 whole entry, stated change not applied): as the sequence (Q66K64 whole entry, stated change not applied) above
T3 sequence (Q14498 151-530 limits assumed, stated change not applied): as the sequence (Q14498 151-530 limits assumed, stated change not applied) above
T3 sequence (Q16531 whole entry partner): as the sequence (Q16531 whole entry partner) above
Description: RBM39 lacking the first 150 amino acids after the start codon (RBM39Δ150) was cloned into the pFastBac1 (Life Technologies) vector. Site-directed Mutagenesis of RBM39 was performed using Q5 site-directed mutagenesis kit (NEB). DCAF15-GST (C-terminal GST tag) and DDB1 were also cloned into pFastBac1. The production of baculovirus was carried out following vendor's instructions. Protein was expressed in SF9 cells by infection with each protein specific baculovirus, and cells were harvested 48 hr later and frozen in liquid nitrogen. For purification of RBM39Δ150, frozen cells were pulverized by cryomill and resuspended in lysis buffer (40 mM Tris, pH 7.5, 225 mM NaCl, 1× […] Protease inhibitor). The lysate was passed through a 22 gauge needle 2 times followed by ultracentrifugation at 25000 rpm for 30 min. Clarified lysate was incubated with Ni-NTA agarose (Qiagen) for 30 min with rotation at 4° C. Resin and bound protein were washed with wash buffer 1 (40 mM Tris, pH 7.5, 225 mM NaCl) followed by wash buffer 2 (40 mM Tris, pH 7.5, 20 mM imidazole, 225 mM NaCl). Proteins were eluted with elution buffer (40 mM Tris, pH 7.5, 300 mM imidazole, 225 mM NaCl) and concentrated to 0.5 ml. Concentrated proteins were then fractionated on Superdex 200 Increase 10/300 GL (GE Healthcare). RBM39Δ150 and mutants eluted at 14.8 ml after injection and were stored at −80° C. in 40 mM Tris, pH 7.5, 225 mM NaCl. For purification of DCAF15-GST/DDB1, Sf9 cells co-infected with DCAF15-GST and DDB1 baculoviruses were lysed in PBS supplemented with 0.1% NP40, 1× […] Protease inhibitors, and 0.5 mM PMSF. The lysate was passed through a 22 gauge needle 2 times followed by centrifugation at 7000 rpm for 15 min. Clarified lysate was incubated with Glutathione Sepharose 4B resin (GE healthcare) for 30 min with rotation at 4° C. Resin was washed with PBS for three times before elution with 50 mM Tris, 10 mM glutathione, pH 8.
HCT-116 cells stably expressing DDB1-3xFLAG, CUL4A-3xFLAG, CUL4B-3xFLAG, or to DCAF15-3xFLAG were lysed in 1×PBS, 0.1% NP40, and 1× […] protease inhibitor (1 ml per […] plate). […]

[6] = system: DCAF15-3xFLAG and mutant RBM39Δ150 (M265L, E271Q, P272S); assay: RBM39Δ150 pulldown assay, mutant RBM39; assay type: binding, human; settings: at concentrations as high as 10 μM
Description: as §2, with “ml. Concentrated proteins were then fractionated on Superdex 200 Increase 10/300 GL (GE Healthcare).” for “ml.”

NS(=O)(=O)c1ccc(S(=O)(=O)Nc2cccc3c(Cl)c[nH]c23)cc1 [Indisulam, indisulam]
RBM39 degradation in response to indisulam [1]: failed to degrade RBM39
amount of RBM39 protein [2]: reduced
elution of RBM39Δ150 with DDB1:DCAF15-GST peak [3]: co-elutes
cell survival (crystal violet) ([4]; mock-transfected or wild type RBM39): not indisulam resistant
cell survival (crystal violet) ([4]; transient expression of eight different RBM39 mutants): conferred resistance
co-purification of DCAF15 with RBM39Δ150 ([5]; in the presence of indisulam, not DDB1, CUL4A or CUL4B): co-purified
indisulam concentration at which RBM39Δ150-DCAF15 complex was apparent ([5]; wild type RBM39Δ150): 0.10 µM
recruitment of M265L or E271Q variants of RBM39Δ150 to DCAF15 [6]: failed to recruit
